Molecules are shown by their SMILES.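 96-well plates; 48 h exposure; 5 concentrations. Endpoints by linear interpolation between flanking doses. Not reached: highest tested concentration assigned. The concentration for full growth arrest is given as TGI.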

Among the test systems are SNB-19 CNS; M14 melanoma; HCT-116 colon; SK-MEL-28 melanoma; K-562 leukemia; UO-31 renal; UACC-62 melanoma; SW-620 colon; SF-539 CNS; MDA-MB-231 breast; SR leukemia; LOX IMVI melanoma; IGROV1 ovarian; A549 NSCLC; SF-295 CNS; PC-3 prostate; OVCAR-5 ovarian; NCI-H226 lung.
Experiment in all cases: NCI-60 cell line screen, 48 h

With `CCOC(=O)c1cc(Br)c(-c2onc(C)c2Br)n1C`, the TGI is more than 100 µM in the test with SNB-19 CNS; more than 100 µM in the test on M14 melanoma; 41.6 µM in the test with HCT-116 colon; more than 100 µM with SK-MEL-28 melanoma; more than 100 µM in the test on K-562 leukemia; more than 100 µM in the test with UO-31 renal. The TGI with UACC-62 melanoma was more than 100 µM; in the test on SW-620 colon, more than 100 µM; in the test with SF-539 CNS, more than 100 µM; in the test on MDA-MB-231 breast it was more than 100 µM; in the test with SR leukemia, 92.9 µM; in the test with LOX IMVI melanoma it was more than 100 µM. For the same compound, the TGI in the test on IGROV1 ovarian was more than 100 µM; with A549 NSCLC, 64.2 µM; in the test on SF-295 CNS, 76.2 µM; with PC-3 prostate it was more than 100 µM; in the test on OVCAR-5 ovarian, 68.8 µM; in the test with NCI-H226 lung, more than 100 µM.

Regarding `COc1cccc(Nc2nc(N)nc(N)c2N=O)c1`, the TGI is more than 100 µM in the test on SNB-19 CNS; 86.6 µM with M14 melanoma; 38.2 µM in the test with HCT-116 colon; 69.8 µM with SK-MEL-28 melanoma; more than 100 µM with K-562 leukemia; 38.1 µM in the test with UO-31 renal. Moreover, the TGI in the test on UACC-62 melanoma was 38.8 µM; in the test on SW-620 colon it was more than 100 µM; with SF-539 CNS, 35.7 µM; in the test with MDA-MB-231 breast, more than 100 µM; in the test on SR leukemia, 45.5 µM; in the test on LOX IMVI melanoma it was 32.6 µM. Besides, the TGI is 94 µM in the test with IGROV1 ovarian; more than 100 µM in the test on A549 NSCLC; 76.6 µM in the test on SF-295 CNS; more than 100 µM in the test with PC-3 prostate; more than 100 µM with OVCAR-5 ovarian; 90.9 µM in the test with NCI-H226 lung.

On to `O=c1c(=[n+]2ccc(=C([O-])c3ccccc3)cc2)/c(=N/S(=O)(=O)c2ccccc2)c(=O)c2ccccc12`, for which the TGI in the test with SNB-19 CNS came out at 26.7 µM; in the test with M14 melanoma, 23.9 µM; in the test with HCT-116 colon, 23.5 µM; with SK-MEL-28 melanoma, 8.8 µM; in the test with K-562 leukemia, 9.98 µM; in the test with UO-31 renal, 23.9 µM. Besides, the TGI in the test with UACC-62 melanoma came to 3.73 µM; in the test on SW-620 colon it was 22 µM; in the test on SF-539 CNS, 25.9 µM; in the test with MDA-MB-231 breast, 26.1 µM; in the test with SR leukemia it was 13.4 µM; in the test with LOX IMVI melanoma, 9.45 µM. Besides, the TGI with IGROV1 ovarian was 23 µM; in the test on A549 NSCLC, 29.8 µM; in the test with SF-295 CNS, 24.3 µM; with PC-3 prostate, 23.6 µM; in the test with OVCAR-5 ovarian, 33.7 µM; in the test on NCI-H226 lung, 30.8 µM.

As for `COc1ccc(C(c2ccc3c(c2)OCO3)N2C(=O)CCC2C(=O)O)cc1` (stereo unspecified), the TGI with SNB-19 CNS, in the test on M14 melanoma, in the test with HCT-116 colon, in the test with SK-MEL-28 melanoma, with K-562 leukemia and in the test with UO-31 renal was more than 100 µM each time. For the same compound, the TGI in the test with UACC-62 melanoma, in the test on SW-620 colon, with SF-539 CNS, with MDA-MB-231 breast, in the test with SR leukemia and in the test on LOX IMVI melanoma was more than 100 µM throughout. For the same compound, the TGI with IGROV1 ovarian, with A549 NSCLC, in the test with SF-295 CNS, in the test on PC-3 prostate, in the test with OVCAR-5 ovarian and with NCI-H226 lung was more than 100 µM in each case.

In the case of `CC1C(O)Oc2cc3c(cc2C1c1ccccc1O)OCO3` (stereo unspecified), the TGI in the test on SNB-19 CNS was more than 100 µM; in the test with M14 melanoma, more than 100 µM; in the test on HCT-116 colon it was 35.5 µM; with SK-MEL-28 melanoma, 84 µM; in the test with K-562 leukemia, 46.5 µM; in the test with UO-31 renal, more than 100 µM. The TGI in the test on UACC-62 melanoma is more than 100 µM; in the test on SW-620 colon, more than 100 µM; in the test on SF-539 CNS it was 79.2 µM; with MDA-MB-231 breast, 65.4 µM; in the test on SR leukemia, 25.2 µM; in the test on LOX IMVI melanoma it was more than 100 µM. The TGI in the test with IGROV1 ovarian is more than 100 µM; in the test with A549 NSCLC, more than 100 µM; in the test with SF-295 CNS, 65.5 µM; in the test with PC-3 prostate it was 65.7 µM; with OVCAR-5 ovarian it was more than 100 µM; with NCI-H226 lung it was 69.2 µM.

As for `c1cc(C[S+]2CCCC2)sc1C[S+]1CCCC1`, the TGI in the test on SNB-19 CNS, with M14 melanoma, in the test on HCT-116 colon, with K-562 leukemia, in the test with UO-31 renal and in the test with UACC-62 melanoma was more than 100 µM in each case. Moreover, the TGI in the test with SW-620 colon, in the test on SF-539 CNS, in the test with MDA-MB-231 breast, in the test with SR leukemia, in the test with LOX IMVI melanoma and in the test with IGROV1 ovarian was more than 100 µM throughout. The TGI in the test with A549 NSCLC, in the test with SF-295 CNS, with PC-3 prostate, in the test with OVCAR-5 ovarian and with NCI-H226 lung was more than 100 µM each time.

With `COc1ccc(C(SCC(N)C(=O)O)(c2ccc(OC)cc2)c2ccc(OC)cc2)cc1` (stereo unspecified), the TGI with SNB-19 CNS is 22.6 µM; in the test with M14 melanoma, 15.1 µM; with HCT-116 colon, 15.6 µM; with SK-MEL-28 melanoma it was 16.8 µM; with K-562 leukemia, more than 31.6 µM; with UO-31 renal, 20 µM. Besides, the TGI in the test on UACC-62 melanoma was 15.7 µM; with SF-539 CNS it was 17.6 µM; in the test with MDA-MB-231 breast it was 19.6 µM; in the test with SR leukemia, more than 31.6 µM; in the test with LOX IMVI melanoma, 17.2 µM; in the test on IGROV1 ovarian it was 20.2 µM. The TGI in the test on A549 NSCLC is more than 31.6 µM; in the test on SF-295 CNS, 17.8 µM; in the test with PC-3 prostate, 17.9 µM; in the test on OVCAR-5 ovarian, 20.7 µM; in the test with NCI-H226 lung it was 18.3 µM.

In the case of `O=C(/C=C/c1ccc2c(c1)OCO2)CC(=O)/C=C/c1ccc2c(c1)OCO2`, the TGI in the test on SNB-19 CNS, with M14 melanoma, in the test with HCT-116 colon, with K-562 leukemia, with UO-31 renal and in the test on UACC-62 melanoma was more than 100 µM in each case. Also, the TGI in the test with SW-620 colon is more than 100 µM; in the test with SF-539 CNS it was more than 100 µM; in the test on MDA-MB-231 breast it was more than 100 µM; with SR leukemia, 79.8 µM; with LOX IMVI melanoma, more than 100 µM; with IGROV1 ovarian, 68.2 µM. Moreover, the TGI with A549 NSCLC, in the test on SF-295 CNS, in the test with PC-3 prostate, with OVCAR-5 ovarian and with NCI-H226 lung was more than 100 µM each time.

These data come from PubChem BioAssay (NCI).
